pIC50: −log10 of the molar value. Where two headings read alike, the source gives them in different places.
What was measured:
recombinant human Nav1.7 = recombinant human Nav1.7 (Homo sapiens (Human), UniProt Q15858); experiment: FRET-based membrane potential assay, recombinant human sodium channel Nav1.7; type: cell-based; details: read-out: FRET-Membrane Potential Nav1.7 IC50
In short: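 Channel activation used veratridine at its EC80, set by a dilution curve each experiment, together with Leiurus scorpion venom, added 3 min after compound. Membrane-potential ratio signals from FLIPR Tetra in HEPES-buffered HBSS were fitted to a four-parameter Hill equation for percent inhibition and IC50.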

osteoarthritic rats = experiment: Osteoarthritic (OA) pain induced by sodium monoiodoacetate (MIA), hind limb grip force; type: in vivo, rat; details: Rattus norvegicus, 480 h, rat, 20 days following MIA injection, hind limb grip force, read-out: OA MPE; for inhibition in vivo at 30 mg/kg: OA dose 30 mg/kg; for inhibition in vivo at 10 mg/kg: OA dose 10 mg/kg
In short: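 Activity-induced pain was read as maximum compressive hind limb grip force, two sequential trials normalized to body weight, 20 days after intra-articular MIA (3 mg/rat) in male Sprague Dawley rats. Randomized, blinded dosing; effect expressed as return toward naïve-animal response relative to vehicle.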

recombinant human Nav1.8 = recombinant human Nav1.8 (Homo sapiens (Human), UniProt Q9Y5Y9); experiment: FRET-based membrane potential assay, recombinant human sodium channel Nav1.8; type: cell-based
Chain of recombinant human Nav1.8 (Q9Y5Y9 whole entry): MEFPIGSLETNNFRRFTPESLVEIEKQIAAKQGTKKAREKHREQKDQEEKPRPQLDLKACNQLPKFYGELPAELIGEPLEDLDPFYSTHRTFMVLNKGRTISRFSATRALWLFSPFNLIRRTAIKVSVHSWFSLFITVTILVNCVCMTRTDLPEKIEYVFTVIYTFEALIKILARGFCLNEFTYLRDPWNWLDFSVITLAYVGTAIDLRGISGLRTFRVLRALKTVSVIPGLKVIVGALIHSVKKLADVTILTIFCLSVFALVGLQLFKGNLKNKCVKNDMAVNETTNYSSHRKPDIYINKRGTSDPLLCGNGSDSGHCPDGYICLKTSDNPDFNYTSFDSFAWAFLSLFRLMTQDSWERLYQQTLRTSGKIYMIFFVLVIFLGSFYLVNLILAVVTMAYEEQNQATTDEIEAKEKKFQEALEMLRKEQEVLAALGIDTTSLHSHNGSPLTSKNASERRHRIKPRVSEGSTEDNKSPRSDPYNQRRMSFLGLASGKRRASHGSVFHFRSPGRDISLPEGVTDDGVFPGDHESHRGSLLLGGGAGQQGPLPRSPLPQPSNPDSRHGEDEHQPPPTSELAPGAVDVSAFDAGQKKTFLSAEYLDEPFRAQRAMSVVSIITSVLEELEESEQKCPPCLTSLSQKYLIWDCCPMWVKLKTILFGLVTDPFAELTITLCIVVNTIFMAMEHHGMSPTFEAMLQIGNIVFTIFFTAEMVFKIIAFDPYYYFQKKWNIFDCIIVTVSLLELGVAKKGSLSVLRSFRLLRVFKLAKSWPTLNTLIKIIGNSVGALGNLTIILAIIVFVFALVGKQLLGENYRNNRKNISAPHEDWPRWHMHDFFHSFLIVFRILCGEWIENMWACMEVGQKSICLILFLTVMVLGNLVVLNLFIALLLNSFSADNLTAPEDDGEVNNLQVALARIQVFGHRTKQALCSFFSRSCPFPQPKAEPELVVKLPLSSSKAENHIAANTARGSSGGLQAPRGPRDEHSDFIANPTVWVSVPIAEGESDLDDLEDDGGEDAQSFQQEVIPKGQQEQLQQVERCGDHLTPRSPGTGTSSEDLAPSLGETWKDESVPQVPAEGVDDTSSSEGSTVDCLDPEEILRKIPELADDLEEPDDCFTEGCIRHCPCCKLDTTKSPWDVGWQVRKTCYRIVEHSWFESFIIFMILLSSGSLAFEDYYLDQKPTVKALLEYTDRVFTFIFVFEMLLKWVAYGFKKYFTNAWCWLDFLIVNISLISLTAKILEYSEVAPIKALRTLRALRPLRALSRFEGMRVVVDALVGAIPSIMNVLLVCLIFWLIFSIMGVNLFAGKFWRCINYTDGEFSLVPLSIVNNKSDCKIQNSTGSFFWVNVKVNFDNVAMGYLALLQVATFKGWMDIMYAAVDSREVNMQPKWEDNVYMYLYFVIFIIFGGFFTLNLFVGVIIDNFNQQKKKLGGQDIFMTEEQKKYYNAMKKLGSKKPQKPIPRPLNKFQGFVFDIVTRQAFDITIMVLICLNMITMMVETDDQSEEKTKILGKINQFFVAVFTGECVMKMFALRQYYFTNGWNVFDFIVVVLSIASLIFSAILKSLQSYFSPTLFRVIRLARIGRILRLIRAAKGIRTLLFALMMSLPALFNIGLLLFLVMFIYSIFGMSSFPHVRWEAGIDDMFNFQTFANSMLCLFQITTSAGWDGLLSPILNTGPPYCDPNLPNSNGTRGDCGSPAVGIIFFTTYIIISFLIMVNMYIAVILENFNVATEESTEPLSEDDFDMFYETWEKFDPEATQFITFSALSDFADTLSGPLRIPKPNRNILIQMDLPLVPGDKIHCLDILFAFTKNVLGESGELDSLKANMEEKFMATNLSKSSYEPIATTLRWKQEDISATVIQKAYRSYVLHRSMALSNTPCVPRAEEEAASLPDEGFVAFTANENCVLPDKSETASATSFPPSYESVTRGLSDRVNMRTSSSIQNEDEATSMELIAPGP

[1] = test system: spinal nerve ligated rats; experiment: Rat spinal nerve ligation (SNL) model of neuropathic pain, paw withdrawal threshold; type: in vivo; details: SNL dose 100 mg/kg; rat, von Frey paw withdrawal threshold; read-out: SNL MPE
Description: Rat Spinal Nerve Ligation (SNL) Model of Neuropathic Pain.
The male Sprague Dawley rats (Charles River Laboratories, Wilmington, Mass.), weighing 150-175 g at the time of surgery, were placed under isoflurane anesthesia and a 1.5 cm incision was made dorsal to the lumbosacral plexus. The paraspinal muscles (left side) were separated from the spinous processes, the left L5 and L6 spinal nerves isolated, and tightly ligated with 5-0 silk suture distal to the dorsal root ganglion. Care was taken to avoid ligating the L4 spinal nerve. Following spinal nerve ligation, a minimum of 7 days of recovery and no more than 3 weeks was allowed prior to the behavioral testing (mechanical sensitivity). Only rats with threshold scores ≦4.5 g were considered allodynic and utilized in pharmacological experiments.
Mechanical sensitivity was measured using calibrated von Frey filaments (Stoelting, Wood Dale, Ill.). […] The von Frey filaments were presented perpendicularly to the plantar surface of the selected hind paw, and then held in this position for approximately 8 seconds with enough force to cause a slight bend in the filament. Positive responses included an abrupt withdrawal of the hind paw from the stimulus, or flinching behavior immediately following removal of the stimulus. […] A percent maximal possible effect (% MPE) of testing compound was calculated according to the formula: (Log [compound−treated threshold]−Log [vehicle−treated threshold])/(Log [maximum threshold]−Log [vehicle−treated threshold])×100%, where the maximum threshold was equal to 15 g.
The animals were housed in Association for Assessment and Accreditation of Laboratory Animal Care (AAALAC) approved facilities at AbbVie Inc. in a temperature-regulated environment under a controlled 12-hour light-dark cycle, with lights on at 6:00 a.m. Food and water were available ad libitum at all times except during testing. All testing was done following procedures outlined in protocols approved by AbbVie Inc.s' Institutional Animal Care and Use Committee.

[2] = HEK293 cells stably expressing recombinant human Nav1.7, veratridine + scorpion venom depolarization
[3] = HEK293 cells stably expressing recombinant human Nav1.8, veratridine + scorpion venom depolarization

Chain of recombinant human Nav1.7 (Q15858 whole entry): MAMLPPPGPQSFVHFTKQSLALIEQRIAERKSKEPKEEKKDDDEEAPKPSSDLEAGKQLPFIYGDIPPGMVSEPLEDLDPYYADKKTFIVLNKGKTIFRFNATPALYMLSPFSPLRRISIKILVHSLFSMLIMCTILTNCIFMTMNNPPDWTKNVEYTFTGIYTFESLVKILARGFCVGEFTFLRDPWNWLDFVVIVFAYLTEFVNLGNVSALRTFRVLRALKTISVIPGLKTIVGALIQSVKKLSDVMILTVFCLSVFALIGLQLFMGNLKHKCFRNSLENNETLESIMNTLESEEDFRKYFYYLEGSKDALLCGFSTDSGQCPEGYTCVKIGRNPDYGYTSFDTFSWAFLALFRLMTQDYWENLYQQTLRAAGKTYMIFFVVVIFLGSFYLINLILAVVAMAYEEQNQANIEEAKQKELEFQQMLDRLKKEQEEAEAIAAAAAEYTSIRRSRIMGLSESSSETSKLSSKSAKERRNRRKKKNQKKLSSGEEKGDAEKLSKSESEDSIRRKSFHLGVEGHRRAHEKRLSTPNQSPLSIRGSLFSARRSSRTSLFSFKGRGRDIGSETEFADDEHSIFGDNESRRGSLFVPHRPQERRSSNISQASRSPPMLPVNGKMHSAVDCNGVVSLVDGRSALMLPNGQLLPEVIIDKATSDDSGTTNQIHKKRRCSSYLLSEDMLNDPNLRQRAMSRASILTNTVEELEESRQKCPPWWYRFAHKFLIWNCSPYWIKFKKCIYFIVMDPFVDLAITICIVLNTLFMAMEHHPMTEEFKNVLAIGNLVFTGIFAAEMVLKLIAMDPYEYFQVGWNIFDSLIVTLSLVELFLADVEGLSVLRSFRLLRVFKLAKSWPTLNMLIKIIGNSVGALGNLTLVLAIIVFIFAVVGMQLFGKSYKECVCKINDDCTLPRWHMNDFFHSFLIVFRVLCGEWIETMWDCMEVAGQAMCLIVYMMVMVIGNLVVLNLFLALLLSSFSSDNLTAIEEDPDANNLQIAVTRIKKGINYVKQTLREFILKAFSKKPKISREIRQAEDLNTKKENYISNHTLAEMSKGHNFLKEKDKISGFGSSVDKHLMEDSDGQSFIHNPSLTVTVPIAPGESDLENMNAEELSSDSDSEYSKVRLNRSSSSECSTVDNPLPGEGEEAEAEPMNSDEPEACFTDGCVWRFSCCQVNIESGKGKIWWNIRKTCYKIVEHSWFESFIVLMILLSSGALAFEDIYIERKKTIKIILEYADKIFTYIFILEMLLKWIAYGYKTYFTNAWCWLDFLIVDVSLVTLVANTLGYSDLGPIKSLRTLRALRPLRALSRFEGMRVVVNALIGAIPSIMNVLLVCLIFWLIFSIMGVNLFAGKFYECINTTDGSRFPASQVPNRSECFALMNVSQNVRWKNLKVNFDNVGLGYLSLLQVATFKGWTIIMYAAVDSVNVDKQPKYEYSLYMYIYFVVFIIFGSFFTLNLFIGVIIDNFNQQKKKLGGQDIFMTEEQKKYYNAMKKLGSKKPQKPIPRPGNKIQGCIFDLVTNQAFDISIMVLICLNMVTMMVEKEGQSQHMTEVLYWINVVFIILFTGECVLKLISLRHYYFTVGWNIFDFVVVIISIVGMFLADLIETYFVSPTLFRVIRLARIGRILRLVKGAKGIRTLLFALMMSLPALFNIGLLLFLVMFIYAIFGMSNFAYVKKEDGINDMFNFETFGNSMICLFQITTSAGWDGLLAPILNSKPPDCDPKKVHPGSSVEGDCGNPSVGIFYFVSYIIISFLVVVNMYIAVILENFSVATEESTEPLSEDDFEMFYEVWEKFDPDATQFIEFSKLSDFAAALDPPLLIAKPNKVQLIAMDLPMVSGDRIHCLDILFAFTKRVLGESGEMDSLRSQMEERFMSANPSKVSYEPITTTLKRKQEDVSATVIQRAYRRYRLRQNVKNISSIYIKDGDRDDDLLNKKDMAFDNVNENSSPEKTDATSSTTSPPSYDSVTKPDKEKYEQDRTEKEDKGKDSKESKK

Compound: O=C(NCC(F)(F)F)c1ccc2cc(Oc3ccc(C(F)(F)F)cn3)ccc2n1 [Example 344, N-(2,2,2-trifluoroethyl)-6-{[5-(trifluoromethyl)pyridin-2-yl]oxy}quinoline-2-carboxamide]
- pIC50 (recombinant human Nav1.7; [2]): 5.68
- inhibition in vivo at 30 mg/kg (osteoarthritic rats): 59%
- pIC50 (recombinant human Nav1.8; [3]): 6.17
- inhibition in vivo at 100 mg/kg [1]: 76%

Compound: CN(C)C(=O)CNC(=O)c1ccc2cc(Oc3ccc(C(F)(F)F)cn3)ccc2n1 [Example 33, N-[2-(dimethylamino)-2-oxoethyl]-6-{[5-(trifluoromethyl)pyridin-2-yl]oxy}quinoline-2-carboxamide]
- pIC50 (recombinant human Nav1.7): 6.33
- inhibition in vivo at 30 mg/kg (osteoarthritic rats): 61%
- pIC50 (recombinant human Nav1.8): 6.13
- inhibition in vivo at 100 mg/kg [1]: 50%

Compound: O=C(N[C@H]1CCS(=O)(=O)C1)c1ccc2cc(Oc3ccc(C(F)(F)F)cn3)ccc2n1 [Example 4, N-[(3S)-1,1-dioxidotetrahydrothiophen-3-yl]-6-{[5-(trifluoromethyl)pyridin-2-yl]oxy}quinoline-2-carboxamide]
- pIC50 (recombinant human Nav1.7; [2]): 6.07
- inhibition in vivo at 30 mg/kg (osteoarthritic rats): 60%
- inhibition in vivo at 100 mg/kg [1]: 56%

Compound: O=C(c1ccc2cc(Oc3ccc(C(F)(F)F)cn3)ccc2n1)N1C[C@@H](F)C[C@H]1CO [Example 50, [(2S,4S)-4-fluoro-2-(hydroxymethyl)pyrrolidin-1-yl](6-{[5-(trifluoromethyl)pyridin-2-yl]oxy}quinolin-2-yl)methanone]
- pIC50 (recombinant human Nav1.7; [2]): 4.91
- inhibition in vivo at 30 mg/kg (osteoarthritic rats): 81%
- inhibition in vivo at 100 mg/kg [1]: 94%

Compound: O=C(c1ccc2cc(Oc3ccc(C(F)(F)F)cn3)ccc2n1)N1CC(N2CCOCC2)C1 [Example 6, [3-(morpholin-4-yl)azetidin-1-yl](6-{[5-(trifluoromethyl)pyridin-2-yl]oxy}quinolin-2-yl)methanone]
- pIC50 (recombinant human Nav1.7; [2]): 5.53
- inhibition in vivo at 10 mg/kg (osteoarthritic rats): 72%
- pIC50 (recombinant human Nav1.8): 5.34
- inhibition in vivo at 100 mg/kg [1]: 27%

Compound: O=C(NC1CC(F)(F)C1)c1ccc2cc(Oc3ccc(C(F)(F)F)cn3)ccc2n1 [Example 59, N-(3,3-difluorocyclobutyl)-6-{[5-(trifluoromethyl)pyridin-2-yl]oxy}quinoline-2-carboxamide]
- pIC50 (recombinant human Nav1.7): 5.77
- inhibition in vivo at 30 mg/kg (osteoarthritic rats): 83%
- inhibition in vivo at 100 mg/kg [1]: 84%

Compound: COC[C@H]1CN(C(=O)c2ccc3cc(Oc4ccc(C(F)(F)F)cn4)ccc3n2)CCN1 [Example 31, [(3R)-3-(methoxymethyl)piperazin-1-yl](6-{[5-(trifluoromethyl)pyridin-2-yl]oxy}quinolin-2-yl)methanone]
- pIC50 (recombinant human Nav1.7): 6.21
- inhibition in vivo at 30 mg/kg (osteoarthritic rats): 94%
- pIC50 (recombinant human Nav1.8; [3]): 5.73
- inhibition in vivo at 100 mg/kg [1]: 64%

Compound: O=C(NC1CCS(=O)(=O)C1)c1ccc2cc(Oc3ccc(C(F)(F)F)cn3)ccc2n1 (stereo not shown) [Example 2, N-(1,1-dioxidotetrahydrothiophen-3-yl)-6-{[5-(trifluoromethyl)pyridin-2-yl]oxy}quinoline-2-carboxamide]
- pIC50 (recombinant human Nav1.7; [2]): 6.30
- inhibition in vivo at 30 mg/kg (osteoarthritic rats): 85%
- pIC50 (recombinant human Nav1.8; [3]): 6.19
- inhibition in vivo at 100 mg/kg [1]: 54%

Compound: O=C(c1ccc2cc(Oc3ccc(C(F)(F)F)cn3)ccc2n1)N1CCC(N2CCOCC2)CC1 [Example 11, [4-(morpholin-4-yl)piperidin-1-yl](6-{[5-(trifluoromethyl)pyridin-2-yl]oxy}quinolin-2-yl)methanone]
- pIC50 (recombinant human Nav1.7; [2]): 5.79
- inhibition in vivo at 10 mg/kg (osteoarthritic rats): 72%
- pIC50 (recombinant human Nav1.8; [3]): 5.77
- inhibition in vivo at 100 mg/kg [1]: 34%

Compound: O=C(c1ccc2cc(Oc3ccc(C(F)(F)F)cn3)ccc2n1)N1CC[C@H](F)C1 [Example 51, [(3S)-3-fluoropyrrolidin-1-yl](6-{[5-(trifluoromethyl)pyridin-2-yl]oxy}quinolin-2-yl)methanone]
- pIC50 (recombinant human Nav1.7; [2]): 5.65
- inhibition in vivo at 30 mg/kg (osteoarthritic rats): 52%
- inhibition in vivo at 100 mg/kg [1]: 90%

Compound: COCCNC(=O)c1ccc2cc(Oc3ccc(C(F)(F)F)cn3)ccc2n1 [Example 22, N-(2-methoxyethyl)-6-{[5-(trifluoromethyl)pyridin-2-yl]oxy}quinoline-2-carboxamide]
- pIC50 (recombinant human Nav1.7; [2]): 5.70
- inhibition in vivo at 30 mg/kg (osteoarthritic rats): 73%
- pIC50 (recombinant human Nav1.8; [3]): 5.45
- inhibition in vivo at 100 mg/kg [1]: 72%

Reference: patent US9452986B2, “6-heteroaryloxy- or 6-aryloxy-quinoline-2-carboxamides and method of use” (AbbVie Inc., priority 2014, dated 2016)
